This is an account of results in ChEMBL document CHEMBL5653615 (J Biol Chem, 2013).

Assay [1] has as its target T1, Protein kinase C iota type (Homo sapiens) (UniProt P41743).
T1 sequence (whole entry): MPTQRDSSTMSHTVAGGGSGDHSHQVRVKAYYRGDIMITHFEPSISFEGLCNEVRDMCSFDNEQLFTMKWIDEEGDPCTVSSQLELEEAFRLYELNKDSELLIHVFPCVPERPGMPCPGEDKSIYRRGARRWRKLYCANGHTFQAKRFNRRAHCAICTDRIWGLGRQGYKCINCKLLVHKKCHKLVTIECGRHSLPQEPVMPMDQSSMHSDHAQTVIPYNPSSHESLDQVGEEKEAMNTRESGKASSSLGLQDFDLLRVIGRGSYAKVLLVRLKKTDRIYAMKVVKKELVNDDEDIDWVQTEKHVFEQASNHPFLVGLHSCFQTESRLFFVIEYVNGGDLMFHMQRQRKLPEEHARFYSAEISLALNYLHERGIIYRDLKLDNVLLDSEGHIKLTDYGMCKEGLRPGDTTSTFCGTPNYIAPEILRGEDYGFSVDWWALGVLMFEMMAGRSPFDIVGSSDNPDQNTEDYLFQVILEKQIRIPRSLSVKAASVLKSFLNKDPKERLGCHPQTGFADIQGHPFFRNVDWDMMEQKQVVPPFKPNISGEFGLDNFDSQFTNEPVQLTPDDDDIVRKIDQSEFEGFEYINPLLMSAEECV
Put plainly: Inhibition of human PKCiota at 18.6 nM by HotSpot assay relative to control.

The target of assay [2] is STE20/SPS1-related proline-alanine-rich protein kinase (Homo sapiens) (UniProt Q9UEW8). Put plainly: Inhibition of human STLK3 at 18.6 nM by HotSpot assay relative to control.
For assay [3], the target named is T2, Serine/threonine-protein kinase Sgk3 (Homo sapiens) (UniProt Q96BR1).
T2 sequence (whole entry): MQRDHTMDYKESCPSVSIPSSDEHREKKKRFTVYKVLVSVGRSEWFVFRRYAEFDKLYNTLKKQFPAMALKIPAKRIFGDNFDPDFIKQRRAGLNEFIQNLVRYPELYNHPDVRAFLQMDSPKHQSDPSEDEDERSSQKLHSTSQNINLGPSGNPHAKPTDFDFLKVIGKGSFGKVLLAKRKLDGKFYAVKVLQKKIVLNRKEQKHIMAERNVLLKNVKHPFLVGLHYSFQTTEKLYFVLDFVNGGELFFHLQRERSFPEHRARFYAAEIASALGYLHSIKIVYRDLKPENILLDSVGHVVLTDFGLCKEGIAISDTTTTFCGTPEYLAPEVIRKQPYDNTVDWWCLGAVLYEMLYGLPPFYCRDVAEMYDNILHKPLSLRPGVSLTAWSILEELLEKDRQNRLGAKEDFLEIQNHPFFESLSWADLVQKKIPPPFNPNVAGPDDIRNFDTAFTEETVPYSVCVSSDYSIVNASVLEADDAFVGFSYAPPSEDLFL
Put plainly: Inhibition of human SGKL at 18.6 nM by HotSpot assay relative to control.

In assay [4] the target is Casein kinase II subunit alpha' (Homo sapiens) (UniProt P19784). Put plainly: Inhibition of human CK2a2 at 18.6 nM by HotSpot assay relative to control.
In assay [5] the target is T3, NUAK family SNF1-like kinase 2 (Homo sapiens) (UniProt Q9H093).
T3 sequence (whole entry): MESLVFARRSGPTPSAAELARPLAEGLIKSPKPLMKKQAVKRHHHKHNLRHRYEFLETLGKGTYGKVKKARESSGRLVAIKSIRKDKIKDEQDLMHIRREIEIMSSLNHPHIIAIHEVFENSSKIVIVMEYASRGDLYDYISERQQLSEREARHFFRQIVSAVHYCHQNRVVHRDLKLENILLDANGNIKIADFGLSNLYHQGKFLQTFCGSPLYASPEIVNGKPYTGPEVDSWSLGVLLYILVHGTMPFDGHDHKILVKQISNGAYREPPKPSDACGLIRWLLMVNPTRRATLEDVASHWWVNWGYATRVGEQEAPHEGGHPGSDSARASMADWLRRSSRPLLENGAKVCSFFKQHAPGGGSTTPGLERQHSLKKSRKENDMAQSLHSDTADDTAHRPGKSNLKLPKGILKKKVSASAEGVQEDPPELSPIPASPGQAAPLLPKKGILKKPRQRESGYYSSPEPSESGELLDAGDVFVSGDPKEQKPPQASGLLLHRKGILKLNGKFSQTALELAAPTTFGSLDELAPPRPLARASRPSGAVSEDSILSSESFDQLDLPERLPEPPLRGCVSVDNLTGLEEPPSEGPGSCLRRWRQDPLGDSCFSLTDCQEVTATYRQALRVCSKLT
Put plainly: Inhibition of human NUAK2 at 18.6 nM by HotSpot assay relative to control.

Assay [6] addresses T1, Protein kinase C iota type (Homo sapiens). Briefly: Inhibition of human PKCiota at 1.82 nM by HotSpot assay relative to control.
Assay [7] has as its target Serine/threonine-protein kinase PAK 3 (Homo sapiens) (UniProt O75914). Briefly: Inhibition of human PAK3 at 1.82 nM by HotSpot assay relative to control.
The target of assay [8] is RAF proto-oncogene serine/threonine-protein kinase (Homo sapiens) (UniProt P04049). Put plainly: Inhibition of human RAF1 at 1.82 nM by HotSpot assay relative to control.
For assay [9], the target named is Death-associated protein kinase 2 (Homo sapiens) (UniProt Q9UIK4). Briefly: Inhibition of human DAPK2 at 1.82 nM by HotSpot assay relative to control.
The target in assay [10] is T4, Tyrosine-protein kinase Tec (Homo sapiens) (UniProt P42680).
T4 sequence (whole entry): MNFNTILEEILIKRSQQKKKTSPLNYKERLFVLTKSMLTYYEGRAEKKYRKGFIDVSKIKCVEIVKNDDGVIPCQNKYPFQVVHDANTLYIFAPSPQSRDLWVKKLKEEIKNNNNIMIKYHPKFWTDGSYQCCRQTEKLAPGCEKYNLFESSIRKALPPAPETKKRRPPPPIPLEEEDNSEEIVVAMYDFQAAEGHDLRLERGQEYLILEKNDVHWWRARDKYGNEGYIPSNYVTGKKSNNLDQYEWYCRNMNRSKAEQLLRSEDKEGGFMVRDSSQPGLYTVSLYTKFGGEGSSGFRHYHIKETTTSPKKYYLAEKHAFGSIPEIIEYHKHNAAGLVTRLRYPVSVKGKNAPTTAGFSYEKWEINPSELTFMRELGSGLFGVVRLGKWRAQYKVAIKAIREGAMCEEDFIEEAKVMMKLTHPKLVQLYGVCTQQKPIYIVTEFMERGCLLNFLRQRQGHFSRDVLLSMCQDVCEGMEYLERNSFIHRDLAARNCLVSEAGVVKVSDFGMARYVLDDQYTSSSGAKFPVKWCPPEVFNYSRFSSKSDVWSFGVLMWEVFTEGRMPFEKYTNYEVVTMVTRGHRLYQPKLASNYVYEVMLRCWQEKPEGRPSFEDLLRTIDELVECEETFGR
Put plainly: Inhibition of human TEC at 1.82 nM by HotSpot assay relative to control.

Assay [11] concerns the target Cyclin-dependent kinase 5/CDK5 activator 1 (Homo sapiens) (UniProt Q00535+Q15078). Briefly: Inhibition of human CDK5/p35 at 1.82 nM by HotSpot assay relative to control. The assay is classed as protein-complex assay.

Serine/threonine-protein kinase PAK 3 (Homo sapiens), sequence (O75914 whole entry, looked up): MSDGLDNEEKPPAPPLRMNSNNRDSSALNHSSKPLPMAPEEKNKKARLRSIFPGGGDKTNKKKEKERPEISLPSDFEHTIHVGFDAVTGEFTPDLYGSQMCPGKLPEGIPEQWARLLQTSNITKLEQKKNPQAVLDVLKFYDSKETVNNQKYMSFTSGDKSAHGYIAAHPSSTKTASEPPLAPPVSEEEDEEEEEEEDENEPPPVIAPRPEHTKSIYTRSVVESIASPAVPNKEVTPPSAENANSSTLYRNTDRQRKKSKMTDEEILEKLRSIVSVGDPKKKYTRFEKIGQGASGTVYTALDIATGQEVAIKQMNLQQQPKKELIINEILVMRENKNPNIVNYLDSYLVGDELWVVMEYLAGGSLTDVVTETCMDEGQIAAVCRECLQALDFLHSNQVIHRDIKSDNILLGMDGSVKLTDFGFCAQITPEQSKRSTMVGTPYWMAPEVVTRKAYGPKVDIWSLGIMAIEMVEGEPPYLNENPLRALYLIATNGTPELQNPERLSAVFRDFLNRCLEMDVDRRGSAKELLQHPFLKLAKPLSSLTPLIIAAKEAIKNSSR
Casein kinase II subunit alpha' (Homo sapiens), sequence (P19784 whole entry, looked up): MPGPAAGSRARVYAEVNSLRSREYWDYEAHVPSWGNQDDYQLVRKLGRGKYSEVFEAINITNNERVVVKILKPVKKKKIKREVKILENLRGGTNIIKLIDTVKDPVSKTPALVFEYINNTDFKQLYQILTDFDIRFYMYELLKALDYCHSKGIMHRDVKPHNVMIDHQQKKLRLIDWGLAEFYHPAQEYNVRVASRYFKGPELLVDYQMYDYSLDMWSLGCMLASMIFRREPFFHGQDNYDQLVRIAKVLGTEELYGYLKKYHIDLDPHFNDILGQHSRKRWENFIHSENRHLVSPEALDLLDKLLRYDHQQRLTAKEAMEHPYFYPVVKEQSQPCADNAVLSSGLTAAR
Death-associated protein kinase 2 (Homo sapiens), sequence (Q9UIK4 whole entry, looked up): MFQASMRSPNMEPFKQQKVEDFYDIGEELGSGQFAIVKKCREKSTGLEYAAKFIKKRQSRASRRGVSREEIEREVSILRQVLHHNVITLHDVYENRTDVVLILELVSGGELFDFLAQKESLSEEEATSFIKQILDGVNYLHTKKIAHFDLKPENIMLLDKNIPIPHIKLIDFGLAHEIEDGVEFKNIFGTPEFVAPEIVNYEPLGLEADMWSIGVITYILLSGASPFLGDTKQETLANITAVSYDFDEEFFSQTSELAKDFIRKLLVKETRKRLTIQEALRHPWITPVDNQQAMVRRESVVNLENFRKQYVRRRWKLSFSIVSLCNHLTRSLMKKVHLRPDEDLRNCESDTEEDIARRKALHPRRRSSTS
Cyclin-dependent kinase 5/CDK5 activator 1 (Homo sapiens), sequence (Q00535 whole entry): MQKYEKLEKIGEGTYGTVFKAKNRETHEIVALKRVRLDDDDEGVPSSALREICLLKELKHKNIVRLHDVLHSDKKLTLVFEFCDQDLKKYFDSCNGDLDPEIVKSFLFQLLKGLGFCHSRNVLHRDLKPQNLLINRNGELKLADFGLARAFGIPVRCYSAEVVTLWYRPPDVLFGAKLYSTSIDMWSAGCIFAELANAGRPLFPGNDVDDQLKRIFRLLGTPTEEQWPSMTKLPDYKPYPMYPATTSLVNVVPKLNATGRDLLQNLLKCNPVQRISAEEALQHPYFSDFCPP
Cyclin-dependent kinase 5/CDK5 activator 1 (Homo sapiens), sequence (Q15078 99-307 partner limits assumed): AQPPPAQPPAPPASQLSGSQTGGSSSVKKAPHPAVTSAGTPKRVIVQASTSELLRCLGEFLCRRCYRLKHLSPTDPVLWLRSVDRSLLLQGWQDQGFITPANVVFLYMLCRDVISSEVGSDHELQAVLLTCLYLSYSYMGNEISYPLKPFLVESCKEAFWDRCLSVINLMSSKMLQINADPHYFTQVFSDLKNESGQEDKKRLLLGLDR
RAF proto-oncogene serine/threonine-protein kinase (Homo sapiens), sequence (P04049 whole entry): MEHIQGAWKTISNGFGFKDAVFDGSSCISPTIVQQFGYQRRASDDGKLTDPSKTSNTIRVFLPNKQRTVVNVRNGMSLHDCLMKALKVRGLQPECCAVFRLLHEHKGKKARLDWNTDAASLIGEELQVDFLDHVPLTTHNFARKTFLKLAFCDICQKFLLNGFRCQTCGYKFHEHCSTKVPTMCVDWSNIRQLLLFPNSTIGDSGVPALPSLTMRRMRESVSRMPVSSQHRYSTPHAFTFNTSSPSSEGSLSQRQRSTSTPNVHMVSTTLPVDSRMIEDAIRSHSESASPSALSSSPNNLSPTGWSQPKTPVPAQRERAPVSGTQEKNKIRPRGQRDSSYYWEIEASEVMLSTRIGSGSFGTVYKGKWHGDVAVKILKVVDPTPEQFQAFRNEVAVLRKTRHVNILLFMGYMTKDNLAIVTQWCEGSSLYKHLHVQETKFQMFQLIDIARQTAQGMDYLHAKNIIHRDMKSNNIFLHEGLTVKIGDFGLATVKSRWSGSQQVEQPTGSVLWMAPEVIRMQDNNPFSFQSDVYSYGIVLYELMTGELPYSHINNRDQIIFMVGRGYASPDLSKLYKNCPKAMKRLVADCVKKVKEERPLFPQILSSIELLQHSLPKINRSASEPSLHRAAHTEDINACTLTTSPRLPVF

In the case of `C[C@]1(O)C[C@@H](c2nc(-c3ccc4ccc(-c5ccccc5)nc4c3)c3c(N)nccn32)C1`, the inhibition in [1] was -2.19%; in assay [2], -7.19%; in assay [3], 0.11%; in assay [4], 38.2%; in [5] it was 11%.
For the compound `C[C@@]1(C(=O)Nc2ccc(F)nc2)CCCN1c1nc(Nc2cc(C3CC3)n[nH]2)c2cccn2n1`, the inhibition in assay [6] was -0.86%; in [7], -2.89%; in assay [8], -9.08%; in [9], -1.36%; in [10] it was -3.36%; in [11] it was 1.01%.
